“Also recorded” adds a separate entry of the source.
Key:
Assay type in all cases: cell-based, mice
[1] = test system: IL-2; experiment: IL-2 content of culture supernatants by CTLL-2 bioassay; conditions: cells expressing the construct; OVA peptide antigen or antigen plus anti-CD28 (1.0 μg/ml); supernatant at 48 hours
Protocol: FIG. 3 contains three bar graphs. Splenocytes from CD28-deficient DO11.10 mice were infected with retrovirus encoding either control (GFPRV) or wild type CD28 (FLCD28) or mutant CD28 constructs and stimulated with OVA(323-339) peptide alone, with CTLA4Ig (10 μg/ml) or with anti-CD28 mAb (1.0 μg/ml). Culture supernatant was harvested at 48 hours and assessed for IL-2 by CTLL-2 bioassay. Shown is the tritiated thymidine incorporation of the CTLL-2 cells. The mean +/−the std deviation of quadruplicate wells is plotted. Data from one representative experiment is shown. A) CTLL-2 assay following stimulation with 0.1 μM OVA. B) CTLL-2 assay following stimulation with 0.03 μM OVA.
Proliferation assays: Wild type or CD28-deficient DO11.10 splenocytes were isolated and infected with retrovirus encoding for either vector alone, full-length CD28, or mutant CD28 proteins. 5×10^4 infected cells were cocultured with 1.5×10^5 T-depleted, irradiated splenocytes from Balb/c mice. Graded doses of OVA(323-339) peptide were added alone or in combination with murine CTLA4Ig (10 μg/ml, provided by Genetics Institute, Cambridge Mass.), anti-CD28 mAb (1.0 μg/ml) or control Ig. Proliferation was determined by tritiated thymidine incorporation for the final 8 hours of a 72 hour culture. All conditions were plated in quadruplicate and the mean +/− standard deviation of the quadruplicate wells was determined. Culture supernatants were harvested from replicate plates at 48 hours and were assayed for IL-2 content by CTLL-2 bioassay. All experiments were repeated a minimum of three times. Representative data from one experiment is presented.
CD28 regulates IL-2 by both transcriptional and post-transcriptional processes (Fraser, J. D., etal., 1991. CD28. Science 251:313. Lindsten, T., et al 1989. Science 244:339). […]

[2] = test system: CD28-deficient DO11.10 splenocytes (T cells); experiment: Proliferation assay: tritiated thymidine incorporation of retrovirally infected splenocytes stimulated with OVA(323-339) peptide and APC; conditions: CD28-deficient T cells reconstituted with the construct; for CD28-dependent proliferation: OVA(323-339) peptide plus T-depleted irradiated Balb/c splenocytes, final 8 h of 72 h culture
[3] = test system: Bcl-XL; experiment: Bcl-XL expression by Western blot in retrovirally infected T cells; conditions: cells expressing the construct, anti-CD3 (10 μg/ml) alone or with soluble anti-CD28 (1.0 μg/ml)

Substance	IL-2 secretion [1]	CD28-dependent proliferation [2]	CD28-dependent proliferation, % proliferation of controls ([2]; multiple experiments (FIG. 2B))	induction of Bcl-XL protein [3]	induction of Bcl-XL protein ([3]; listed as CD28PI 87,190A)
CD28Y170F: mutant CD28 with phenylalanine substituted for the tyrosine at position 170 (SEQ ID NO: 6) (IWTNSRRLLQSDFMNMTPRRPGLTRKPYQPYAPARDFAAYRP; listed as Homo sapiens)	comparable to wild type; also recorded: equivalent levels as cells reconstituted with wild type CD28	appeared normal	60-80%	unable to induce Bcl-XL induction	
CD28P187,190A: CD28 mutant with alanine instead of proline residues at position 187 and 190 (SEQ ID NO: 7) (IWTNSRRLLQSDYMNMTPRRPGLTRKPYQAYAAARDFAAYRP; listed as Homo sapiens)	marked decrease in IL-2 secretion	abrogated CD28-dependent proliferation		Bcl-XL induction was induced	increased Bcl-XL expression
CD28d16: CD28 mutant with deletion of the C-terminal 16 amino acids (SEQ ID NO: 5) (IWTNSRRLLQSDYMNMTPRRPGLTRK; listed as Homo sapiens)		did not produce any significant CD28-dependent proliferation		unable to induce Bcl-XL induction	
CD28Y188F: CD28 mutant which lacked the tyrosine within the PYAP motif (SEQ ID NO: 8) (IWTNSRRLLQSDYMNMTPRRPGLTRKPYQPFAPARDFAAYRP; listed as Homo sapiens)	comparable to wild type	less effect			
FLCD28: full-length wild type murine CD28 expressed by retrovirus (SEQ ID NO: 3) (IWTNSRRLLQSDYMNMTPRRPGLTRKPYQPYAPARDFAAYRP; listed as Homo sapiens)		strong proliferative response		CD28-dependent induction of Bcl-XL protein	
